Experimental findings from patent publication US12396461B2, “Functional peptides having antimicrobial activity against phytopathogenic microorganisms” (TOYOTA JIDOSHA KABUSHIKI KAISHA, priority 2019, dated 2025) are described below.

Assay type in all cases: cell-based
The subject of assay [1] is Colletotrichum orbiculare. Also noted: key to Plate antimicrobial activity test Colletotrichum orbiculare, level: a case where hyphae extended to the entire well and no antimicrobial activity was found is defined as “level 0,”; a case where hyphae extended to less than a half of the well and thus the peptide inhibited the growth of the hyphae is defined as “level 1,”; a case where ungerminated spores were present and the peptide partially inhibited the germination is defined as “level 2,”; a case where all spores were ungerminated and the peptide completely inhibited the germination is defined as “level 3.”. As to conditions: 25° C. for 1 day or 2 days, microscopic observation.

The subject of assay [2] is Pyricularia oryzae. Also noted: key to Plate antimicrobial activity test Pyricularia oryzae, level: a case where hyphae extended to the entire well and no antimicrobial activity was found is defined as “level 0,”; a case where hyphae extended to less than a half of the well and thus the peptide inhibited the growth of the hyphae is defined as “level 1,”; a case where ungerminated spores were present and the peptide partially inhibited the germination is defined as “level 2,”; a case where all spores were ungerminated and the peptide completely inhibited the germination is defined as “level 3.”. As to conditions: 25° C. for 1 day or 2 days, microscopic observation.

Assay [3] has as its system Botrytis cinerea. Also noted: key to Plate antimicrobial activity test Botrytis cinerea, level: a case where hyphae extended to the entire well and no antimicrobial activity was found is defined as “level 0,”; a case where hyphae extended to less than a half of the well and thus the peptide inhibited the growth of the hyphae is defined as “level 1,”; a case where ungerminated spores were present and the peptide partially inhibited the germination is defined as “level 2,”; a case where all spores were ungerminated and the peptide completely inhibited the germination is defined as “level 3.”. Conditions: 25° C. for 1 day or 2 days, microscopic observation.

Assay [4] relates to Colletotrichum destructivum. Also noted: key to Plate antimicrobial activity test Colletotrichum destructivum, level: a case where hyphae extended to the entire well and no antimicrobial activity was found is defined as “level 0,”; a case where hyphae extended to less than a half of the well and thus the peptide inhibited the growth of the hyphae is defined as “level 1,”; a case where ungerminated spores were present and the peptide partially inhibited the germination is defined as “level 2,”; a case where all spores were ungerminated and the peptide completely inhibited the germination is defined as “level 3.”. Conditions: 25° C. for 1 day or 2 days, microscopic observation.

Assay [5] has as its system Fusarium oxysporum. Also noted: key to Plate antimicrobial activity test Fusarium oxysporum, level: a case where hyphae extended to the entire well and no antimicrobial activity was found is defined as “level 0,”; a case where hyphae extended to less than a half of the well and thus the peptide inhibited the growth of the hyphae is defined as “level 1,”; a case where ungerminated spores were present and the peptide partially inhibited the germination is defined as “level 2,”; a case where all spores were ungerminated and the peptide completely inhibited the germination is defined as “level 3.”.

Where “and” joins values, the source holds several entries; their conditions need not be identical. Equal entries are not always repeated. Where two headings read alike, the source gives them in different places.

For “MIVVK (listed as Solanum lycopersicum) [TsORF6-1-5aa-4, partial peptide of TsORF6-1, 5 amino acid residues]”, the “Plate antimicrobial activity test Colletotrichum orbiculare, level” value in assay [1] (peptide 1 μM) stood at 0; in assay [1] (peptide 10 μM), 0; in assay [1] (peptide 100 μM), 1. Moreover, the “Plate antimicrobial activity test Pyricularia oryzae, level” value was 0 in assay [2] (peptide 1 μM), 0 in assay [2] (peptide 10 μM) and 1 in assay [2] (peptide 100 μM). Further, the “Plate antimicrobial activity test Botrytis cinerea, level” value stood at 0 in assay [3] (peptide 1 μM), 0 in assay [3] (peptide 10 μM) and 1 in assay [3] (peptide 100 μM). Also, the “Plate antimicrobial activity test Colletotrichum destructivum, level” value is listed as 0 in assay [4] (peptide 1 μM), 0 in assay [4] (peptide 10 μM) and 1 in assay [4] (peptide 100 μM). For the same substance, in assay [5], the “Plate antimicrobial activity test Fusarium oxysporum, level” value is listed as 0.

In the case of “NKKVA (listed as Solanum lycopersicum) [TsORF6-1-5aa-13, partial peptide of TsORF6-1, 5 amino acid residues]”, the “Plate antimicrobial activity test Colletotrichum orbiculare, level” value in assay [1] (peptide 1 μM), in assay [1] (peptide 10 μM) and in assay [1] (peptide 100 μM) was 0 each time. Moreover, the “Plate antimicrobial activity test Pyricularia oryzae, level” value in assay [2] (peptide 1 μM), in assay [2] (peptide 10 μM) and in assay [2] (peptide 100 μM) was 0 in each case. Further, the “Plate antimicrobial activity test Botrytis cinerea, level” value in assay [3] (peptide 1 μM), in assay [3] (peptide 10 μM) and in assay [3] (peptide 100 μM) was 0 throughout. For the same substance, the “Plate antimicrobial activity test Colletotrichum destructivum, level” value in assay [4] (peptide 1 μM), in assay [4] (peptide 10 μM) and in assay [4] (peptide 100 μM) was 0 in each case. Further, the “Plate antimicrobial activity test Fusarium oxysporum, level” value in assay [5] was determined as 0.

Turning to “NKKVAKMM (listed as Solanum lycopersicum) [TsORF6-1-8aa-13, partial peptide of TsORF6-1, 8 amino acid residues]”, the “Plate antimicrobial activity test Colletotrichum orbiculare, level” value in assay [1] (peptide 1 μM), in assay [1] (peptide 10 μM) and in assay [1] (peptide 100 μM) was 0 throughout. Moreover, the “Plate antimicrobial activity test Pyricularia oryzae, level” value in assay [2] (peptide 1 μM), in assay [2] (peptide 10 μM) and in assay [2] (peptide 100 μM) was 0 throughout. For the same substance, the “Plate antimicrobial activity test Botrytis cinerea, level” value in assay [3] (peptide 1 μM), in assay [3] (peptide 10 μM) and in assay [3] (peptide 100 μM) was 0 throughout. Also, the “Plate antimicrobial activity test Colletotrichum destructivum, level” value in assay [4] (peptide 1 μM), in assay [4] (peptide 10 μM) and in assay [4] (peptide 100 μM) was 0 each time. Further, in assay [5], the “Plate antimicrobial activity test Fusarium oxysporum, level” value was 0.

“KMMVKEDEKNKRVITMKEELMV (listed as Solanum lycopersicum) [TsORF6-2, chemically synthesized region of TsORF6]”: the “Plate antimicrobial activity test Colletotrichum orbiculare, level” value in assay [1] (peptide 1 μM), in assay [1] (peptide 10 μM) and in assay [1] (peptide 100 μM) was 0 each time. Also, the “Plate antimicrobial activity test Pyricularia oryzae, level” value in assay [2] (peptide 1 μM), in assay [2] (peptide 10 μM) and in assay [2] (peptide 100 μM) was 0 throughout. Also, the “Plate antimicrobial activity test Botrytis cinerea, level” value was determined as 0 in assay [3] (peptide 1 μM), 0 in assay [3] (peptide 10 μM) and 2 in assay [3] (peptide 100 μM). In addition, the “Plate antimicrobial activity test Colletotrichum destructivum, level” value in assay [4] (peptide 1 μM), in assay [4] (peptide 10 μM) and in assay [4] (peptide 100 μM) was 0 each time. The “Plate antimicrobial activity test Fusarium oxysporum, level” value in assay [5] was 1 and 0.

Regarding “VKNKK (listed as Solanum lycopersicum) [TsORF6-1-5aa-11, partial peptide of TsORF6-1, 5 amino acid residues]”, the “Plate antimicrobial activity test Colletotrichum orbiculare, level” value in assay [1] (peptide 1 μM), in assay [1] (peptide 10 μM) and in assay [1] (peptide 100 μM) was 0 throughout. Moreover, the “Plate antimicrobial activity test Pyricularia oryzae, level” value in assay [2] (peptide 1 μM), in assay [2] (peptide 10 μM) and in assay [2] (peptide 100 μM) was 0 throughout. Further, the “Plate antimicrobial activity test Botrytis cinerea, level” value in assay [3] (peptide 1 μM), in assay [3] (peptide 10 μM) and in assay [3] (peptide 100 μM) was 0 each time. Further, the “Plate antimicrobial activity test Colletotrichum destructivum, level” value in assay [4] (peptide 1 μM), in assay [4] (peptide 10 μM) and in assay [4] (peptide 100 μM) was 0 throughout. In addition, the “Plate antimicrobial activity test Fusarium oxysporum, level” value in assay [5] came out at 0.

For the substance “TKVKN (listed as Solanum lycopersicum) [TsORF6-1-5aa-9, partial peptide of TsORF6-1, 5 amino acid residues]”, the “Plate antimicrobial activity test Colletotrichum orbiculare, level” value in assay [1] (peptide 1 μM), in assay [1] (peptide 10 μM) and in assay [1] (peptide 100 μM) was 0 in each case. Also, the “Plate antimicrobial activity test Pyricularia oryzae, level” value in assay [2] (peptide 1 μM), in assay [2] (peptide 10 μM) and in assay [2] (peptide 100 μM) was 0 in each case. The “Plate antimicrobial activity test Botrytis cinerea, level” value in assay [3] (peptide 1 μM), in assay [3] (peptide 10 μM) and in assay [3] (peptide 100 μM) was 0 each time. The “Plate antimicrobial activity test Colletotrichum destructivum, level” value in assay [4] (peptide 1 μM), in assay [4] (peptide 10 μM) and in assay [4] (peptide 100 μM) was 0 each time. Moreover, in assay [5], the “Plate antimicrobial activity test Fusarium oxysporum, level” value was found to be 0.

In the case of “VKTKVKNK (listed as Solanum lycopersicum) [TsORF6-1-8aa-7, partial peptide of TsORF6-1, 8 amino acid residues]”, the “Plate antimicrobial activity test Colletotrichum orbiculare, level” value in assay [1] (peptide 1 μM), in assay [1] (peptide 10 μM) and in assay [1] (peptide 100 μM) was 0 in each case. The “Plate antimicrobial activity test Pyricularia oryzae, level” value in assay [2] (peptide 1 μM), in assay [2] (peptide 10 μM) and in assay [2] (peptide 100 μM) was 0 throughout. Further, the “Plate antimicrobial activity test Botrytis cinerea, level” value in assay [3] (peptide 1 μM), in assay [3] (peptide 10 μM) and in assay [3] (peptide 100 μM) was 0 each time. Moreover, the “Plate antimicrobial activity test Colletotrichum destructivum, level” value in assay [4] (peptide 1 μM), in assay [4] (peptide 10 μM) and in assay [4] (peptide 100 μM) was 0 in each case. The “Plate antimicrobial activity test Fusarium oxysporum, level” value in assay [5] came out at 0.

For “KTKVK (listed as Solanum lycopersicum) [TsORF6-1-5aa-8, partial peptide of TsORF6-1, 5 amino acid residues]”, the “Plate antimicrobial activity test Colletotrichum orbiculare, level” value in assay [1] (peptide 1 μM), in assay [1] (peptide 10 μM) and in assay [1] (peptide 100 μM) was 0 in each case. The “Plate antimicrobial activity test Pyricularia oryzae, level” value in assay [2] (peptide 1 μM), in assay [2] (peptide 10 μM) and in assay [2] (peptide 100 μM) was 0 throughout. Also, the “Plate antimicrobial activity test Botrytis cinerea, level” value in assay [3] (peptide 1 μM), in assay [3] (peptide 10 μM) and in assay [3] (peptide 100 μM) was 0 each time. In addition, the “Plate antimicrobial activity test Colletotrichum destructivum, level” value in assay [4] (peptide 1 μM), in assay [4] (peptide 10 μM) and in assay [4] (peptide 100 μM) was 0 in each case. Moreover, the “Plate antimicrobial activity test Fusarium oxysporum, level” value in assay [5] worked out at 0.
